Laboratory results from patent US7033802B1, “Penicillin binding protein gene and process for producing L-glutamic acid” (Ajinomoto Co., Inc., priority 1998, dated 2006).
“Also recorded” adds a separate entry of the source.

Tests used:
PBP3 = test: Inhibition by mecillinam of binding of 14C-penicillin G to PBPs in membrane fraction (SDS-PAGE, image analyzer); design: species or system Brevibacterium lactofermentum; conditions: mecillinam added at various concentrations before the penicillin binding reaction; membrane fraction of ATCC 13869
Experimental: PBP is considered to be a membrane protein. A membrane fraction of a coryneform bacterium was prepared as follows. A wild strain of coryneform bacteria, Brevibacterium lactofermentum ATCC 13869 strain, was inoculated to 20 ml of A medium (containing 10 g of polypeptone, 5 g of yeast extract, 5 g of NaCl and 5 g of glucose in 1 L of water), cultured at 30° C. with shaking, and harvested when the absorption at 660 nm reached about 1.0. The cells were washed in […] sodium phosphate buffer, pH 7.0. Then, the buffer was added with glass beads and sonicated to disrupt the cells. […] Protein concentration of this membrane fraction was determined by using a protein quantification kit (produced by PIERCE, Micro BCA Protein assay kit), and found to be 4 mg/ml.
A volume of 30 μl of the prepared membrane fraction was added with 3 μl of ^14C-penicillin G (produced by Amersham) and allowed to react at 30° C. for 10 minutes. […] A sample of this fraction was subjected to SDS-PAGE using gel containing 10% of polyacrylamide, and the gel was fixed, dried and analyzed with an image analyzer BAS2000 produced by Fuji Photo Film Co., Ltd. As a result, three bands were detected at 110 kDa, 100 kDa and 60 kDa, and designated as PBP1, PBP2 and PBP3, respectively. […]

[1] = system: Brevibacterium lactofermentum ATCC 13869; test: Glutamic acid production by coryneform bacterium induced by addition of mecillinam; assay type: cell-based; conditions: A medium, 30° C., added after 2 hours, further cultured 8 hours
Experimental: The Brevibacterium lactofermentum ATCC 13869 strain was inoculated to the aforementioned A medium, cultured at 30° C. for 2 hours with shaking, then added with 0.01 μM to 100 μM of mecillinam, and further cultured for 8 hours with shaking. Subsequently, glutamic acid concentration in the medium was measured by using Biotech Analyzer AS210 (produced by Asahi Chemical Industry Co., Ltd.) (Table 1).

CC1(C)S[C@@H]2[C@H](/N=C/N3CCCCCC3)C(=O)N2[C@H]1C(=O)O [mecillinam]
inhibition of binding of PBP with isotope (14C) labeled penicillin G / selectivity among PBP1, PBP2, PBP3 (PBP3): only PBP3 was inhibited; also recorded: selectively binds to PBP3
Concentration of L-glutamic acid ([1]; 0.1 μM added mecillinam): 0 mg/L
Concentration of L-glutamic acid ([1]; 1.0 μM added mecillinam): 0 mg/L
Concentration of L-glutamic acid ([1]; 10 μM added mecillinam): 0 mg/L
Concentration of L-glutamic acid ([1]; 100 μM added mecillinam): 575 mg/L
